ChEMBL document CHEMBL6121020, “Neuroprotective Indole Alkaloids from the Soil-Derived Fungus Trichocladium sp. XZ8” (2025)
Calls of active or inactive are those of the source. The rule behind the calls is not given here.

How the values were obtained:
PC-12 [1] = experiment: Neuroprotective activity against RSL3-induced ferroptosis in rat PC-12 cells assessed as increase in survival rate at 10 uM preincubated with RSL3 stimulation followed by compound addition and measured after 24 hrs by CCK-8 assay (reference value: 54%); type: functional
PC-12 [2] = experiment: Neuroprotective activity against RSL3-induced ferroptosis in rat PC-12 cells assessed as increase in survival rate at 10 uM preincubated with RSL3 stimulation followed by compound addition and measured after 24 hrs by CCK-8 assay; type: functional, cell-based
PC-12 [3] = experiment: Upregulation of SLC7A11 expression in RSL3-induced rat PC-12 cells at 10 uM preincubated with compound for 24 hrs followed by RSL3 stimulation and measured after 24 hrs by Western blotting analysis; type: functional, cell-based; conditions: time 48.0 hrs
PC-12 [4] = experiment: Upregulation of ferritin level in RSL3-induced rat PC-12 cells at 10 uM preincubated with compound for 24 hrs followed by RSL3 stimulation and measured after 24 hrs by Western blotting analysis; type: functional, cell-based; conditions: time 48.0 hrs
PC-12 [5] = experiment: Anti-ferroptosis activity against RSL3-induced ferroptosis in rat PC-12 cells assessed as decrease in lipid peroxidation at 10 uM by BODIPY-C11 581/591 staining based fluorescence microscopic analysis; type: functional, cell-based
PC-12 [6] = experiment: Downregulation of NCOA4 level in RSL3-induced rat PC-12 cells at 10 uM preincubated with compound for 24 hrs followed by RSL3 stimulation and measured after 24 hrs by Western blotting analysis; type: functional, cell-based; conditions: time 48.0 hrs
PC-12 [7] = experiment: Anti-ferroptosis activity against RSL3-induced ferroptosis in rat PC-12 cells assessed as increase in GSH level at 10 uM preincubated with compound for 24 hrs followed by RSL3 stimulation and measured after 24 hrs by […] method; type: functional, cell-based; conditions: time 48.0 hrs
PC-12 [8] = experiment: Effect on SLC7A11 expression in RSL3-induced rat PC-12 cells at 10 uM preincubated with compound for 24 hrs followed by RSL3 stimulation and measured after 24 hrs by Western blotting analysis; type: functional, cell-based; conditions: time 48.0 hrs

| Compound | Activity (PC-12 [1]) | Activity (PC-12 [2]) | Activity (PC-12 [3]) | Activity (PC-12 [4]) | Activity (PC-12 [5]) | Activity (PC-12 [6]) | Activity (PC-12 [7]) | Activity (PC-12 [8]) |
| --- | --- | --- | --- | --- | --- | --- | --- | --- |
| CC(=O)NCCc1ccc(O)cc1 | 83% |  |  |  |  |  |  |  |
| OCc1c[nH]c2ccccc12 |  | Active |  |  |  |  |  |  |
| C/C=C(C)/C=C(\C)[C@H]1C(C)=C[C@]2(C)C[C@H](C)CC[C@H]2[C@@H]1C(=O)[C@H]1C(=O)NC(=O)[C@@H]1Cc1c[nH]c2ccccc12 |  | Active | Active | Active | Active | Active |  |  |
| CC(C)=CCc1ccc2c(c1)NC(=O)C2 | 77% |  |  |  |  |  |  |  |
| C/C(=C\Cc1ccc2c(c1)NC(=O)C2)C(=O)O | 84% |  |  | Active | Active | Active | Active | inactive |
